Assay results published in ChEMBL document CHEMBL3739396, “5-Aryl-1-imino-1-oxo-[1,2,4]thiadiazines” (ACS Med Chem Lett, 2015).

Target: Beta-secretase 1 (Homo sapiens, UniProt P56817)
Test: Inhibition of human BACE1 in HEK293 cells expressing APP assessed as decrease in amyloid beta-40 level after 18 to 20 hrs
Assay type: cell-based

Beta-secretase 1, sequence (P56817 whole entry): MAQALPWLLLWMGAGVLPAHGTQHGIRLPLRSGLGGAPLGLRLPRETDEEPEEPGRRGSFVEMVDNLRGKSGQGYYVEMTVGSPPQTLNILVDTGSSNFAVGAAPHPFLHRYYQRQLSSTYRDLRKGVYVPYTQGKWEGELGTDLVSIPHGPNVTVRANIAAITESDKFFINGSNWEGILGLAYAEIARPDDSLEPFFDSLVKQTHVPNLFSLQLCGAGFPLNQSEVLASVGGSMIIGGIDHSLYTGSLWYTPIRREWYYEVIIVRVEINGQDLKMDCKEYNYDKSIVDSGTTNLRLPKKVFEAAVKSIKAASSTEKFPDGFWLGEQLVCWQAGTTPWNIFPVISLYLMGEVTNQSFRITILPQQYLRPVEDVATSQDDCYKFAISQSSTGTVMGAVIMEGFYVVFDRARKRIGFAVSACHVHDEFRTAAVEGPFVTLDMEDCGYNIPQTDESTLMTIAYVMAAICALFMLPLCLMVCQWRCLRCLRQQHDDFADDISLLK

Row | IC50 [nM] | Structure (SMILES)
1 | 9.5 | C[C@@]1(c2cc(-c3cn(-c4ccc(C#N)cn4)nn3)ccc2F)C[S@]2(=O)=NCCCCN2C(N)=N1
2 | 9.5 | C[C@@]1(c2cc(-c3cc(-c4ncc(Cl)cn4)no3)ccc2F)C[S@]2(=O)=NCCCCN2C(N)=N1
3 | 2 | C[C@@]1(c2cc(NC(=O)c3ccc(C#N)cn3)ccc2F)C[S@]2(=O)=NCCCCN2C(N)=N1
